Laboratory results as given in publication PMC9957770, “Mass spectrometry imaging–based assays for aminotransferase activity reveal a broad substrate spectrum for a previously uncharacterized enzyme” (The Journal of Biological Chemistry, 2023).

Molecular target: T1, AtTAT1 (Arabidopsis thaliana, UniProt Q9FN30)
T1 construct: gene At5g53970; pET28a construct of Wang et al. (2016), His-tagged, expressed in E. coli Rosetta-2 (DE3), HisTrap purified
T1 sequence (Q9FN30 1-414): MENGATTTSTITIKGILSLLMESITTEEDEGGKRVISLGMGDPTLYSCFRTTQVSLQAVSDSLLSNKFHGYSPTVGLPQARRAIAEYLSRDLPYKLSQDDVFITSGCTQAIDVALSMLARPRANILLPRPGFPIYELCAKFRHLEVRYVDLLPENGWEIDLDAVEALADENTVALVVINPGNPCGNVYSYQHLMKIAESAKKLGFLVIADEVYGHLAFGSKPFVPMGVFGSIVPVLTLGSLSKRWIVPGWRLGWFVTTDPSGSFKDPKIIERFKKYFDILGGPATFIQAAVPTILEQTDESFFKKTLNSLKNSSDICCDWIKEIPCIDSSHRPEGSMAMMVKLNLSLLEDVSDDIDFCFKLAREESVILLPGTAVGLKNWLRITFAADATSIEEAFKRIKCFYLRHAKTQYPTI
Assay: oxime tagging with NIMS mass spectrometry imaging
Format: biochemical
Settings: 10 mM amino donor, 6 mM alpha-ketoglutarate, 0.5 mM PLP, 100 mM HEPES, final pH 7.6 to 8.0, 30 °C, 60 min

| Compound | oxime tagging with NIMS mass spectrometry imaging |
| --- | --- |
| N[C@@H](Cc1ccccc1)C(=O)O [phenylalanine] | AtTAT1 can use Tyr, histidine (His), leucine (Leu), methionine (Met), phenylalanine (Phe), and tryptophan (Trp) |
| N[C@@H](Cc1ccc(O)cc1)C(=O)O [tyrosine] | AtTAT1 can use Tyr, histidine (His), leucine (Leu), methionine (Met), phenylalanine (Phe), and tryptophan (Trp) |
